From patent US8735609B2, “Bryostatin analogues, synthetic methods and uses” (The Board of Trustees of the Leland Stanford Junior …, priority 2007, dated 2014)

Assays:
[1] = test system: CCRF-CEM; experiment: NCI human cancer cell line growth inhibition: CCRF-CEM (Leukemia); assay type: cell-based
[2] = test system: HL-60(TB); experiment: cells; assay type: cell-based, human
[3] = test system: K-562; experiment: NCI human cancer cell line growth inhibition: K-562 (Leukemia); assay type: cell-based
[4] = test system: MOLT-4; experiment: NCI human cancer cell line growth inhibition: MOLT-4 (Leukemia); assay type: cell-based
[5] = test system: RPMI-8226; experiment: NCI human cancer cell line growth inhibition: RPMI-8226 (Leukemia); assay type: cell-based
[6] = test system: SR; experiment: NCI human cancer cell line growth inhibition: SR (Leukemia); assay type: cell-based
[7] = test system: A549/ATCC; experiment: NCI human cancer cell line growth inhibition: A549/ATCC (NSC Lung); assay type: cell-based
[8] = test system: EKVX; experiment: NCI human cancer cell line growth inhibition: EKVX (NSC Lung); assay type: cell-based
[9] = test system: HOP-62; experiment: NCI human cancer cell line growth inhibition: HOP-62 (NSC Lung); assay type: cell-based
[10] = test system: HOP-92; experiment: NCI human cancer cell line growth inhibition: HOP-92 (NSC Lung); assay type: cell-based
[11] = test system: NCI-H226; assay type: cell-based, human; conditions: NCI-H226, NSC Lung
[12] = test system: NCI-H23; assay type: cell-based, human; conditions: NCI-H23, NSC Lung
[13] = test system: NCI-H460; assay type: cell-based, human; conditions: NCI-H460, NSC Lung
[14] = test system: NCI-H522; assay type: cell-based, human; conditions: NCI-H522, NSC Lung
[15] = test system: COLO 205; experiment: NCI human cancer cell line growth inhibition: COLO 205 (Colon); assay type: cell-based
[16] = test system: HCC-2998; experiment: NCI human cancer cell line growth inhibition: HCC-2998 (Colon); assay type: cell-based
[17] = test system: HCT-116; experiment: NCI human cancer cell line growth inhibition: HCT-116 (Colon); assay type: cell-based
[18] = test system: HCT-15; experiment: NCI human cancer cell line growth inhibition: HCT-15 (Colon); assay type: cell-based
[19] = test system: HT29; experiment: NCI human cancer cell line growth inhibition: HT29 (Colon); assay type: cell-based
[20] = test system: KM12; experiment: NCI human cancer cell line growth inhibition: KM12 (Colon); assay type: cell-based
[21] = test system: SW-620; experiment: NCI human cancer cell line growth inhibition: SW-620 (Colon); assay type: cell-based
[22] = test system: SF-268; experiment: NCI human cancer cell line growth inhibition: SF-268 (CNS); assay type: cell-based
[23] = test system: SF-295; experiment: NCI human cancer cell line growth inhibition: SF-295 (CNS); assay type: cell-based
[24] = test system: SF-539; experiment: NCI human cancer cell line growth inhibition: SF-539 (CNS); assay type: cell-based
[25] = test system: SNB-19; experiment: NCI human cancer cell line growth inhibition: SNB-19 (CNS); assay type: cell-based
[26] = test system: SNB-75; experiment: NCI human cancer cell line growth inhibition: SNB-75 (CNS); assay type: cell-based
[27] = test system: U251; experiment: NCI human cancer cell line growth inhibition: U251 (CNS); assay type: cell-based
[28] = test system: PC-3; experiment: NCI human cancer cell line growth inhibition: PC-3 (Prostate); assay type: cell-based
[29] = test system: DU-145; experiment: NCI human cancer cell line growth inhibition: DU-145 (Prostate); assay type: cell-based
[30] = test system: LOX IMVI; experiment: NCI human cancer cell line growth inhibition: LOX IMVI (Melanoma); assay type: cell-based
[31] = test system: MALME-3M; experiment: NCI human cancer cell line growth inhibition: MALME-3M (Melanoma); assay type: cell-based
[32] = test system: MI4; experiment: NCI human cancer cell line growth inhibition: MI4 (Melanoma); assay type: cell-based
[33] = test system: SK-MEL-2; experiment: NCI human cancer cell line growth inhibition: SK-MEL-2 (Melanoma); assay type: cell-based
[34] = test system: SK-MEL-28; experiment: NCI human cancer cell line growth inhibition: SK-MEL-28 (Melanoma); assay type: cell-based
[35] = test system: SK-MEL-5; experiment: NCI human cancer cell line growth inhibition: SK-MEL-5 (Melanoma); assay type: cell-based
[36] = test system: UACC-257; experiment: NCI human cancer cell line growth inhibition: UACC-257 (Melanoma); assay type: cell-based
[37] = test system: UACC-62; experiment: NCI human cancer cell line growth inhibition: UACC-62 (Melanoma); assay type: cell-based
[38] = test system: IGROVI; experiment: NCI human cancer cell line growth inhibition: IGROVI (Ovarian); assay type: cell-based
[39] = test system: OVCAR-3; experiment: NCI human cancer cell line growth inhibition: OVCAR-3 (Ovarian); assay type: cell-based
[40] = test system: OVCAR-4; experiment: NCI human cancer cell line growth inhibition: OVCAR-4 (Ovarian); assay type: cell-based
[41] = test system: OVCAR-5; experiment: NCI human cancer cell line growth inhibition: OVCAR-5 (Ovarian); assay type: cell-based
[42] = test system: OVCAR-8; experiment: NCI human cancer cell line growth inhibition: OVCAR-8 (Ovarian); assay type: cell-based
[43] = test system: SK-OV-3; experiment: NCI human cancer cell line growth inhibition: SK-OV-3 (Ovarian); assay type: cell-based
[44] = test system: 786-0; experiment: NCI human cancer cell line growth inhibition: 786-0 (Renal); assay type: cell-based
[45] = test system: A498; experiment: NCI human cancer cell line growth inhibition: A498 (Renal); assay type: cell-based
[46] = test system: ACHN; experiment: NCI human cancer cell line growth inhibition: ACHN (Renal); assay type: cell-based
[47] = test system: CAKI-1; experiment: NCI human cancer cell line growth inhibition: CAKI-1 (Renal); assay type: cell-based
[48] = test system: RXF-393; experiment: NCI human cancer cell line growth inhibition: RXF-393 (Renal); assay type: cell-based
[49] = test system: SN12C; experiment: NCI human cancer cell line growth inhibition: SN12C (Renal); assay type: cell-based
[50] = test system: TK-10; experiment: NCI human cancer cell line growth inhibition: TK-10 (Renal); assay type: cell-based
[51] = test system: UO-31; experiment: NCI human cancer cell line growth inhibition: UO-31 (Renal); assay type: cell-based
[52] = test system: MCF7; experiment: NCI human cancer cell line growth inhibition: MCF7 (Breast); assay type: cell-based
[53] = test system: NCI/ADR-RES; assay type: cell-based, human; conditions: Breast
[54] = test system: MDA-MB-231/ATCC; experiment: NCI human cancer cell line growth inhibition: MDA-MB-231/ATCC (Breast); assay type: cell-based
[55] = test system: MDA-MB-435; experiment: NCI human cancer cell line growth inhibition: MDA-MB-435 (Breast); assay type: cell-based
[56] = test system: MDA-N; experiment: NCI human cancer cell line growth inhibition: MDA-N (Breast); assay type: cell-based
[57] = test system: BT-549; experiment: NCI human cancer cell line growth inhibition: BT-549 (Breast); assay type: cell-based
[58] = test system: T-47D; experiment: NCI human cancer cell line growth inhibition: T-47D (Breast); assay type: cell-based
[59] = test system: HS 578T; experiment: NCI human cancer cell line growth inhibition: HS 578T (Breast); assay type: cell-based

Measured: Growth inhibition (GI50)

CCC/C=C/C=C/C(=O)O[C@H]1/C(=C/C(=O)OC)C[C@H]2C[C@H]([C@@H](C)O)OC(=O)C[C@H](O)C[C@@H]3C[C@H](OC(C)=O)C(C)(C)[C@](O)(C[C@@H]4C/C(=C/C(=O)OC)C[C@H](/C=C/C(C)(C)[C@]1(O)O2)O4)O3 [Bryo-1, Bryostatin-1, reference compound]
−5.20 log of molar concentration: [7] | [20] | [23] | [31] | [33] | [44] | [52] | [54] | [58]
−5.2 log of molar concentration: [59]
−5.30 log of molar concentration: [1] | [8] | [10] | [16] | [17] | [19] | [28] | [37] | [38] | [48]
−5.50 log of molar concentration: [4] | [21] | [26] | [40] | [46]
−5.10 log of molar concentration: [22] | [27] | [30] | [34] | [36] | [39] | [42] | [43] | [49] | [55] | [56] | [57]
−5.60 log of molar concentration: [13] | [51]
−5.40 log of molar concentration: [3] | [15] | [47]
−5.70 log of molar concentration: [2] | [35]
>−5 log of molar concentration: all other assays above
